From the Biogen ADME set (Fang et al. 2023) come the findings set out here.

In brackets after ≈: the same amount, converted by molar mass.

For the series the following is noted: for aqueous solubility: pH 6.8.

As for `O=C(Nc1nc2ccccc2[nH]1)c1cccnc1`, the aqueous solubility (as a rule, the dissolved amount per volume that the medium holds) was 0.0002 mg/mL (≈ 0.839 µM).
For the molecule `COc1cc(CN2C[C@H]3CCc4c(nc(C)[nH]c4=O)[C@H]3C2)cc(OC)c1OC`, the MDR1-MDCK efflux ratio is 47.5; the intrinsic clearance, human liver microsomes was no more than 0.284 L/h/kg; the intrinsic clearance, rat liver microsomes is no more than 0.64 L/h/kg.
Consider `COc1ncnc(C)c1-c1cccc(OC(C)C)c1`, for which the MDR1-MDCK efflux ratio came to 0.634; the intrinsic clearance, human liver microsomes came to 3.81 L/h/kg; the intrinsic clearance, rat liver microsomes was found to be 63.7 L/h/kg.
Turning to `Cc1cnccc1-c1cnc(N(C)C)nc1-c1ccco1`, the MDR1-MDCK efflux ratio came out at 0.636; the intrinsic clearance, human liver microsomes worked out at 8.39 L/h/kg; the intrinsic clearance, rat liver microsomes was 135 L/h/kg.
In the case of `Cc1ccc2nc(C)c(-c3nc(C)nn3CCO)cc2c1`, the MDR1-MDCK efflux ratio amounted to 9.02; the intrinsic clearance, human liver microsomes is no more than 0.284 L/h/kg; the intrinsic clearance, rat liver microsomes was 1.16 L/h/kg; the aqueous solubility was determined as 0.027 mg/mL (≈ 95.6 µM).
As for `Cc1cccc(NCC2CCN(C(=O)c3ccccc3)CC2)n1`, the MDR1-MDCK efflux ratio came to 1.18; the intrinsic clearance, human liver microsomes is 0.791 L/h/kg; the intrinsic clearance, rat liver microsomes was 66.6 L/h/kg; the aqueous solubility was 0.0285 mg/mL (≈ 92.1 µM).
Consider `O=C(CCCOc1ccccc1)N1CCCC1`, for which the MDR1-MDCK efflux ratio worked out at 0.631; the intrinsic clearance, human liver microsomes stood at 0.626 L/h/kg; the intrinsic clearance, rat liver microsomes was 17.7 L/h/kg; the aqueous solubility worked out at 0.0305 mg/mL (≈ 131 µM).
For `Cc1nc(CN(C)C(=O)C2c3ccccc3-c3ccccc32)no1`, the MDR1-MDCK efflux ratio amounted to 1.09; the intrinsic clearance, human liver microsomes came out at 0.9 L/h/kg; the intrinsic clearance, rat liver microsomes came out at 25.8 L/h/kg; the aqueous solubility amounted to 0.0326 mg/mL (≈ 102 µM).
With `CC1CCC(N(Cc2nnc(C3CCC3)o2)C2CCC(O)CC2)CC1` (stereo not drawn), the MDR1-MDCK efflux ratio was 2.03; the intrinsic clearance, human liver microsomes is 13.8 L/h/kg; the intrinsic clearance, rat liver microsomes is 96.9 L/h/kg.
Take `COc1cccc(OCCCn2cncc2-c2cc3c(cc2C)n(C)c(=O)n3C)c1`: the MDR1-MDCK efflux ratio was found to be 143; the intrinsic clearance, human liver microsomes is 2.3 L/h/kg; the intrinsic clearance, rat liver microsomes is 21.1 L/h/kg; the aqueous solubility came out at 0.0554 mg/mL (≈ 136 µM).
Consider `Cc1nsc(Nc2ccccc2)c1C#N`, for which the MDR1-MDCK efflux ratio is 0.367; the intrinsic clearance, human liver microsomes was found to be 18 L/h/kg; the intrinsic clearance, rat liver microsomes worked out at 46.9 L/h/kg.
`COc1ccc(-c2c(C)n[nH]c2C)cn1`: the MDR1-MDCK efflux ratio is 0.678; the intrinsic clearance, human liver microsomes was no more than 0.284 L/h/kg; the intrinsic clearance, rat liver microsomes is 3.13 L/h/kg; the aqueous solubility turned out to be 0.0147 mg/mL (≈ 72.4 µM).
For the molecule `Nc1nc2c3ccccc3oc2c2ccccc12`, the MDR1-MDCK efflux ratio stood at 0.236 and the aqueous solubility came out at 0.00025 mg/mL (≈ 1.07 µM).
Consider `c1ccc(-n2cc(CNc3ncccn3)cn2)cc1`, for which the MDR1-MDCK efflux ratio was 0.497; the intrinsic clearance, human liver microsomes worked out at 1.85 L/h/kg; the intrinsic clearance, rat liver microsomes worked out at 10.9 L/h/kg; the aqueous solubility amounted to 0.0411 mg/mL (≈ 164 µM).
For `CCn1nccc1CNc1nnc(-c2ccc(OC)cc2)o1`, the MDR1-MDCK efflux ratio was found to be 1.89; the intrinsic clearance, human liver microsomes is 0.397 L/h/kg; the intrinsic clearance, rat liver microsomes stood at 4.57 L/h/kg; the aqueous solubility was 0.0271 mg/mL (≈ 90.6 µM).
`CN(CCN(C)C1CCCC1)C(=O)c1ccc(-c2nc[nH]n2)cc1` came in with an intrinsic clearance, human liver microsomes of no more than 0.284 L/h/kg; an intrinsic clearance, rat liver microsomes of 1.18 L/h/kg; an aqueous solubility of 0.0368 mg/mL (≈ 112 µM).
`COc1ccc(-c2nnc(-c3ccccc3)o2)cc1OC`: the MDR1-MDCK efflux ratio worked out at 0.227; the intrinsic clearance, human liver microsomes turned out to be 2.97 L/h/kg; the intrinsic clearance, rat liver microsomes is 3.05 L/h/kg; the aqueous solubility is 0.00434 mg/mL (≈ 15.4 µM).
On to `COc1cc2c(cc1OC)CN(CCc1ccc(NC(=O)c3cccc4c(O)c5cccc(OC)c5nc34)cc1)CC2`, for which the fraction unbound, human plasma was found to be 0.00062 and the fraction unbound, rat plasma was found to be 0.00051.
As to `Cc1nc(C)c2c(C)c(C(=O)N(C)Cc3ccc(C)o3)sc2n1`, the MDR1-MDCK efflux ratio was 1.1; the intrinsic clearance, human liver microsomes was 2.16 L/h/kg; the intrinsic clearance, rat liver microsomes is 173 L/h/kg; the aqueous solubility is 0.0375 mg/mL (≈ 114 µM).
Turning to `Cc1cnccc1NC(=O)COc1ccccc1C#N`, the intrinsic clearance, human liver microsomes amounted to 0.735 L/h/kg and the intrinsic clearance, rat liver microsomes was 18.1 L/h/kg.
In the case of `CC(C)Nc1ccc(-c2cc3c(cc2CO)OCCO3)cn1`, the MDR1-MDCK efflux ratio is 0.775; the intrinsic clearance, human liver microsomes was 0.822 L/h/kg; the intrinsic clearance, rat liver microsomes was 343 L/h/kg.
On to `CC(=O)c1ccccc1-c1cccc(C(=O)NCCCN2CCCC2)c1`, for which the MDR1-MDCK efflux ratio worked out at 133; the intrinsic clearance, human liver microsomes is no more than 0.284 L/h/kg; the intrinsic clearance, rat liver microsomes amounted to 44.5 L/h/kg.
For the molecule `CC(=O)NC1CCC(NCCSc2ccc(C)cc2)CC1` (stereo not drawn), the MDR1-MDCK efflux ratio worked out at 10.8; the intrinsic clearance, human liver microsomes came to 3.86 L/h/kg; the intrinsic clearance, rat liver microsomes was 29.9 L/h/kg.
As to `Cc1ccnc(NC(=O)CN2CCCC2=O)c1`, the MDR1-MDCK efflux ratio came to 2.12; the intrinsic clearance, human liver microsomes is no more than 0.284 L/h/kg; the intrinsic clearance, rat liver microsomes is no more than 0.64 L/h/kg; the aqueous solubility worked out at 0.0551 mg/mL (≈ 236 µM).
For the molecule `Cc1nc(C)c(CNc2cnn(-c3ccccc3)c2)s1`, the MDR1-MDCK efflux ratio amounted to 0.521; the intrinsic clearance, human liver microsomes amounted to 0.851 L/h/kg; the intrinsic clearance, rat liver microsomes came out at 7.47 L/h/kg; the aqueous solubility amounted to 0.0364 mg/mL (≈ 128 µM).
Turning to `CON(C)C(=O)c1cc(C)ccc1NS(C)(=O)=O`, the MDR1-MDCK efflux ratio came to 1.52; the intrinsic clearance, human liver microsomes was no more than 0.284 L/h/kg; the intrinsic clearance, rat liver microsomes is no more than 0.64 L/h/kg; the aqueous solubility amounted to 0.0333 mg/mL (≈ 122 µM).
With `O=C(Cc1ccccc1F)N1CCN(c2nccn3nc4c(c23)CCCC4)CC1`, the MDR1-MDCK efflux ratio is 0.961; the intrinsic clearance, human liver microsomes turned out to be 7.95 L/h/kg; the intrinsic clearance, rat liver microsomes was 47 L/h/kg; the aqueous solubility came out at 0.0561 mg/mL (≈ 143 µM).
On to `Cc1nc(C(C)C)sc1C(=O)Nc1nc(C(C)(C)C)cs1`, for which the MDR1-MDCK efflux ratio was 0.306; the intrinsic clearance, human liver microsomes stood at 1.67 L/h/kg; the intrinsic clearance, rat liver microsomes was 23.9 L/h/kg; the aqueous solubility was 0.0118 mg/mL (≈ 36.4 µM).
Consider `Cc1cc2c(=O)n3c(nc2s1)CCNCC3`, for which the intrinsic clearance, human liver microsomes was no more than 0.284 L/h/kg and the intrinsic clearance, rat liver microsomes is 4.05 L/h/kg.
Take `CN(C)S(=O)(=O)N(C1CCCC1)C1CC1`: the aqueous solubility was 0.0326 mg/mL (≈ 140 µM).
As to `COc1nn(C)cc1C(=O)Nc1cccc(-c2cnc3n2CCC3)c1`, the MDR1-MDCK efflux ratio is 9.53; the fraction unbound, human plasma stood at 0.0736; the fraction unbound, rat plasma was 0.0485; the intrinsic clearance, human liver microsomes amounted to 0.631 L/h/kg. Further, the intrinsic clearance, rat liver microsomes was 4.24 L/h/kg and the aqueous solubility turned out to be 0.0362 mg/mL (≈ 107 µM).
In the case of `CN1C(=O)N(CC(=O)Nc2ccccc2-c2ccccc2)C(=O)C1(C)C`, the MDR1-MDCK efflux ratio was 12.9; the intrinsic clearance, human liver microsomes was found to be 1.28 L/h/kg; the intrinsic clearance, rat liver microsomes was determined as 16.8 L/h/kg; the aqueous solubility is 0.0187 mg/mL (≈ 53.2 µM).
For `COc1cc2nc(N)sc2cc1OC` the same measures were 0.668, no more than 0.284 L/h/kg, 0.753 L/h/kg and 0.0326 mg/mL (≈ 155 µM).
For `N#Cc1ccc(CCC(=O)Nc2ccncc2)cc1`, the MDR1-MDCK efflux ratio worked out at 1.39; the intrinsic clearance, human liver microsomes was no more than 0.284 L/h/kg; the intrinsic clearance, rat liver microsomes was 3.62 L/h/kg; the aqueous solubility stood at 0.0379 mg/mL (≈ 151 µM).
Regarding `COCCCNc1nnc(-c2ccncc2)s1`, the MDR1-MDCK efflux ratio was found to be 0.654; the intrinsic clearance, human liver microsomes is 0.797 L/h/kg; the intrinsic clearance, rat liver microsomes turned out to be 5.04 L/h/kg.
Regarding `O=C(O)c1ccccc1-c1ccc(CN2CCCCC2)cc1`, the MDR1-MDCK efflux ratio was 4.17; the intrinsic clearance, human liver microsomes was no more than 0.284 L/h/kg; the intrinsic clearance, rat liver microsomes stood at 3.26 L/h/kg; the aqueous solubility was found to be 0.0919 mg/mL (≈ 311 µM).
Turning to `Cc1nc(N(C)C)cc(C2(C)CCNCC2)n1`, the MDR1-MDCK efflux ratio was found to be 17.7; the intrinsic clearance, human liver microsomes is no more than 0.284 L/h/kg; the intrinsic clearance, rat liver microsomes was found to be 1.1 L/h/kg; the aqueous solubility stood at 0.045 mg/mL (≈ 192 µM).
For `Cc1nc(NC(c2nccn2C)C2CC2)c2sccc2n1` (stereo not drawn), the MDR1-MDCK efflux ratio was determined as 13.9; the intrinsic clearance, human liver microsomes worked out at 2.62 L/h/kg; the intrinsic clearance, rat liver microsomes was 19.2 L/h/kg; the aqueous solubility worked out at 0.0513 mg/mL (≈ 171 µM).
Turning to `CC(=O)c1cnc2ccc(-c3cc(Cl)c(O)c(Cl)c3)nc2c1N[C@H]1CC[C@H](CN(C)C)CC1`, the MDR1-MDCK efflux ratio is 21.9 and the aqueous solubility turned out to be 0.0003 mg/mL (≈ 0.615 µM).
In the case of `C[C@@H](NC(=O)N1CCC2(CCOCC2)CC1)c1ccc(F)cc1`, the MDR1-MDCK efflux ratio turned out to be 2.32; the intrinsic clearance, human liver microsomes amounted to 0.372 L/h/kg; the intrinsic clearance, rat liver microsomes stood at 14.2 L/h/kg.
The molecule `CC(=O)N1CCCN(Cc2ccc(C(=O)N3CCCC3)cc2)c2ccccc21` showed an intrinsic clearance, human liver microsomes of 13.6 L/h/kg and an intrinsic clearance, rat liver microsomes of 19.6 L/h/kg.
In turn, `O=C(NCc1ccc(CN2CCS(=O)(=O)CC2)cc1)c1ccon1` had an intrinsic clearance, human liver microsomes of no more than 0.284 L/h/kg and an intrinsic clearance, rat liver microsomes of no more than 0.64 L/h/kg.
On to `COc1cc(CN2CCC(C(=O)N3CCOCC3)CC2)ccc1C`, for which the MDR1-MDCK efflux ratio is 2.9; the intrinsic clearance, human liver microsomes came out at 0.565 L/h/kg; the intrinsic clearance, rat liver microsomes came to 13.7 L/h/kg.
The molecule `O=C(NCc1ccc(O)cc1)Nc1ccncc1F` had an intrinsic clearance, human liver microsomes of no more than 0.284 L/h/kg; an intrinsic clearance, rat liver microsomes of no more than 0.64 L/h/kg; an aqueous solubility of 0.0378 mg/mL (≈ 145 µM).
With `O=C(Cn1ncc2ccccc21)Nc1ccc2c(c1)CCO2`, the intrinsic clearance, human liver microsomes is 0.822 L/h/kg and the intrinsic clearance, rat liver microsomes turned out to be 12.6 L/h/kg.
For the molecule `CC(C(=O)Nc1ccc(C(N)=O)cc1)N1CCCC(c2nc3ccccc3o2)C1` (stereo not drawn), the MDR1-MDCK efflux ratio came out at 15.1; the intrinsic clearance, human liver microsomes came to 11 L/h/kg; the intrinsic clearance, rat liver microsomes was 131 L/h/kg; the aqueous solubility came out at 0.0565 mg/mL (≈ 144 µM).
On to `O=C(Cc1csc(-c2ccc(F)cc2)n1)N1CCC(n2c(=O)[nH]c3ccccc32)CC1`, for which the intrinsic clearance, human liver microsomes is 20.8 L/h/kg and the intrinsic clearance, rat liver microsomes turned out to be 169 L/h/kg.
